# Data: patent US20070016970A1, “Guinea pig-chymase” (priority 2005, published 2007)
# Like-named read-outs stand apart in the source and are kept apart here.
# Key:
# guinea pig chymase = molecular target: T1, guinea pig chymase (Cavia porcellus, UniProt A7WPL7, G52S); test: Assay for chymase inhibition (fluorogenic AAPF-AMC substrate), guinea pig chymase; type: biochemical; conditions: recombinant guinea pig chymase; 0.02 mM AAPF-substrate, 1 nM chymase, pH 7.4, 30 min pre-incubation, room temperature; read-out: Inhibition of guinea pig chymase activity, IC50, GP chymase
# T1 construct: Thereby the mature guinea pig chymase with the correct N-terminus was formed; 26-amino acid N-terminal polypeptide with 6xHis tag and enterokinase cleavage site (N, cleaved yes); made in house
# T1 sequence (A7WPL7 22-247 G52S): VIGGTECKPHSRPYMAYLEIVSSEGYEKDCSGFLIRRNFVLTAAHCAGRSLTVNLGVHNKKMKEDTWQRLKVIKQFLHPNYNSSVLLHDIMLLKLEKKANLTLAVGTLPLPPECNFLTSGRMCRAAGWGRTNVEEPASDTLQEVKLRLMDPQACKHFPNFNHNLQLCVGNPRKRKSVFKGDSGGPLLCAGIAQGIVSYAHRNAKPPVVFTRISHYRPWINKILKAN
# Human Chymase coli = molecular target: T2, Human Chymase coli (Homo sapiens, UniProt P23946); test: Assay for chymase inhibition (fluorogenic AAPF-AMC substrate), human chymase; type: biochemical
# T2 construct: Chymase purified from human skin mast cells was obtained from Calbiochem; purchased Calbiochem (Merck Biosciences, San Diego, Calif., USA); host or cells: human skin mast cells
# T2 sequence (P23946 22-247): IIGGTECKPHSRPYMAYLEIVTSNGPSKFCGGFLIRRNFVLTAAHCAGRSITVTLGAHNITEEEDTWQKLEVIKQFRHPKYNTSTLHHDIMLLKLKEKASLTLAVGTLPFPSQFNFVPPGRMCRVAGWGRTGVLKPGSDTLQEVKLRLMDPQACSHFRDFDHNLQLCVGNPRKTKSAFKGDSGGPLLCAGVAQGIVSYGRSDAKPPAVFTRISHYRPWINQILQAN
# Experimental: The peptide was synthesized with a purity of 95% from Bachem, Bubendorf, Switzerland). Chymase purified from human skin mast cells was obtained from Calbiochem (Merck Biosciences, San Diego, Calif., USA). The assay buffer was 0.15 M NaCl, 0.05M, Tris HCl, 0.05% CHAPS, 0.1 mg/ml Heparin (Heparin sodium, Sigma, porcine intestinal mucosa), 0.02mM AAPF-substrate, 1 nM Chymase at pH 7.4. The assay was performed in 96-well plates (Packard Optiplate), with a 0.05 ml volume at room temperature. Chymase activity was indicated by the initial rate of increase in fluorescence at 340/440 nm (excitation/emission) from free 7-amino-4-methylcoumarin released from the substrate. Inhibition of the activity by inhibitory compounds was read after 30 min pre-incubation with the chymase at room temperature in assay buffer without AAPF-substrate. The assay was then started by addition of the indicated concentration of AAPF-substrate.
SMILES,IC50 (guinea pig chymase) [nM],"IC50 (Human Chymase coli; human chymase, 0.02 mM AAPF-substrate, 1 nM chymase, pH 7.4, 30 min pre-incubation, room temperature, read-out: Inhibition of chymase activity, IC50, Human Chymase coli) [nM]",IC50 (Human Chymase coli) [nM]
"CC(=O)NCCc1c(C(c2ccccc2)c2c(O)c3ccccc3n(C)c2=O)[nH]c2ccccc12 (stereo not shown) [SF2809-V, N-(2-{2-[(4-Hydroxy-1-methyl-2-oxo-1,2-dihydro-quinolin-3-yl)-phenyl-methyl]-1H-indol-3-yl}-ethyl)-acetamide]",940,570,–
"COC(=O)c1ccc(NS(=O)(=O)c2sc3ccc(F)cc3c2C)c(S(C)(=O)=O)c1 [TY-51076, 4-(5-Fluoro-3-methyl-benzothiophene-2-sulfonylamino)-3-methanesulfonyl-benzoic acid methyl ester]",345,–,590
